# According to patent US20230398110A1, “COMPOSITIONS AND METHODS FOR TREATING NON-ALCOHOLIC STEATOHEPATITIS” (ASCENTAGE PHARMA (SUZHOU) CO., LTD., priority 2020, published 2023):
# Columns and labels:
# [1] = test system: rats with DEN-HFD-CHOL induced non-alcoholic steatohepatitis; experiment: DEN-HFD-CHOL induced NASH rat model, liver histology (NAS score, fibrosis); assay type: in vivo; conditions: 42 days; for NAS score (FIG. 3B) / ballooning (FIG. 3B) / steatosis, lobular inflammation and hepatocellular ballooning (HE-staining of liver tissue, FIG. 3A): Compound 1 10 and 30 mg/kg, GFT505 30 mg/kg
# Text: Male SD rats, with an age of 10 days, were purchased from Vital River Co., Ltd (Beijing).
# The rats were given a one-time intraperitoneal injection of diethylnitrosamine (DEN) two weeks after birth, and continued breast milk feeding for two weeks.
# After four weeks, a total of 56 male rats were selected and divided into 7 groups according to animal weight. The rats were started on a high-fat, high-cholesterol diet (HFD-CHOL), with a feeding cycle of 12 weeks. Before intraperitoneal injection of DEN, 5 male rats were randomly selected for parallel feeding as a control cohort, which were fed a standard diet and not injected with DEN.
# After 7 weeks of HFD-CHOL diet feeding, the animals were randomized and treatment with vehicle or the indicated compound was started. The test article administration and the animal numbers in each group are shown in the following experimental design Table 5.
# The body weight of animals was measured at the day of the last administration (the end of the test). After the animal were fasted for 6 hours, all animals were euthanatized to collect blood and liver samples for biochemical and histological analysis.
# Liver tissue from animals in each group were analyzed for NAS scores, the unweighted sum of the steatosis (0-3), lobular inflammation (0-3) and hepatocellular ballooning (0-2) scores, after HE-staining, and analyzed for liver fibrosis score (0-4) after Sirius red staining.
# Liver tissue from animals in each group were analyzed for NAS scores using the methods disclosed above in Example 16. Specifically, the scores assessed were: • 1) the unweighted sum of the steatosis (0-3); • 2) lobular inflammation (0-3); • 3) hepatocellular ballooning (0-2); and • 4) liver fibrosis score (0-4), after Sirius red staining.
# (§1) Prism, version 6, (GraphPad Software Inc., San Diego, CA) was used for all statistical analysis and for graphic presentation.
# After drug treatment for 42 days, animals were euthanatized to collect liver samples for pathological analysis.
# [2] = target: Mcl-1 (Homo sapiens, UniProt Q07820); experiment: FP saturation binding of fluorescent probe to Mcl-1; conditions: 2 nM probe, read-out: Kd of Flu-BID to Mcl-1
# Experimental: Fluorescence polarization values were measured using an Infinite M-1000 plate reader (Tecan U.S., Research Triangle Park, N.C.) in Microfluor 96-well, black, round-bottom plates (Thermo Scientific). […] Plates were mixed and incubated at room temperature for 1 hour with gentle shaking to assure equilibrium. […] Equilibrium dissociation constants (Kd) were then calculated by fitting the sigmoidal dose-dependent FP increases as a function of protein concentrations using Graphpad Prism 5.0 software (Graphpad Software, San Diego, Calif.).
# [3] = test system: C57BL/6J mice induced with high-fat diet (HFD) and CCl4; experiment: HFD/CCl4 NASH mouse model, liver histology (NAS score, fibrosis); assay type: in vivo
# Experimental: Male C57BL/6J mice with an age of 18 weeks were purchased from GemPharmatech Co., Ltd (Nanjing, Jiangsu). Mice were first fed with high-fat diet (HFD) for 11 weeks to induced obesity. Carbon tetrachloride (25% CCl4, 0.5 μl/g) was then intraperitoneally injected twice weekly for 4 consecutive weeks, to induce liver damages, leading to inflammation, cell death and fibrosis. The day of the first carbon tetrachloride injection was dated as day 0. At day 7, the animals were randomized and treatment started. The test article administration and the animal numbers in each group are shown in the following experimental design Table 3.
# All animals were euthanatized at day 28 to collect blood and liver samples for biochemical and histological analysis.
# Liver tissue from animals in each group were analyzed for NAS scores.
# Specifically, the scores assessed were: • 1) the unweighted sum of the steatosis (0-3); • 2) lobular inflammation (0-3); • 3) hepatocellular ballooning (0-2); and • 4) liver fibrosis score (0-4), after Sirius red staining.
# Liver tissues of each group of animals were taken, and NAS scores were analyzed by hematoxylin-eosin (HE) staining, and liver fibrosis was analyzed by Sirius red staining.
# After staining, the NAS scores of the prepared samples were evaluated. In hematoxylin-eosin stained sections, NAS scores were evaluated according to the degree of steatosis, inflammatory cell infiltration and […].
# After staining, fibrosis of the liver was additionally evaluated. All sections stained with Sirius Red were scanned by an Aperio VERSA 200 Brightfield & Fluorescenc slice scanner. Two fields were randomly selected under a 5×field of view. The two fields covered 85% of the liver tissue area. Quantitative analysis to calculate the area of fibrosis deposition in the slices was performed.
# as §1
# After drug treatment for 21 days, animals were euthanatized to collect liver samples for pathological analysis.
# [4] = Compound 1 50 mg/kg qd p.o., 21 days
# [5] = Compound 1 10 and 30 mg/kg vs GFT505 30 mg/kg, qd p.o.
# Mcl-1, sequence (Q07820 whole entry): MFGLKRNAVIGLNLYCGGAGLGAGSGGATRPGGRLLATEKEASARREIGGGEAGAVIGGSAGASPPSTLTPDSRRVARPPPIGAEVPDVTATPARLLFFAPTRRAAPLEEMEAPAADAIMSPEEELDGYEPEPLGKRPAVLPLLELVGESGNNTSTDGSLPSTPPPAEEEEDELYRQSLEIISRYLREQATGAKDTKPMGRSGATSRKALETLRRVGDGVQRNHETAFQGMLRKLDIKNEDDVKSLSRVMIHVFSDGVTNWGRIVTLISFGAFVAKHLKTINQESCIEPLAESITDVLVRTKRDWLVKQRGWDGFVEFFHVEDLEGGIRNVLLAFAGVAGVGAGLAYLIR
Molecule,NAS score (FIG. 3B) ([1]; qd p.o.),ballooning (FIG. 3B) ([1]; qd p.o.),"steatosis, lobular inflammation and hepatocellular ballooning (HE-staining of liver tissue, FIG. 3A) ([1]; qd p.o.)",Kd [2] [nM],"fibrosis (Sirius red staining, fibrosis score, FIG. 2A/2B) ([3]; Compound 1 50 mg/kg qd p.o. single agent, in comparison to OCA)","ballooning (NAS score analysis, FIG. 1B) [3, 4]","steatosis (NAS score analysis, FIG. 1B) [3, 4]","steatosis, lobular inflammation and hepatocellular ballooning (HE-staining of liver tissue, FIG. 1A) ([3]; Compound 1 50 mg/kg qd p.o., OCA 30 mg/kg qd p.o., alone or combined, 21 days)","anti-inflammation effect compared with OCA alone ([3]; Compound 1 50 mg/kg vs OCA 30 mg/kg, qd p.o., 21 days)","inflammation (NAS score analysis, FIG. 1B) ([3]; Compound 1 50 mg/kg, OCA 30 mg/kg, qd p.o., 21 days)","fibrosis (Sirius red staining, fibrosis score, FIG. 4A/4B) ([1]; Compound 1 10 and 30 mg/kg qd p.o.)","anti-inflammation effects compared with GFT505 [1, 5]","effects on steatosis compared with GFT505 [1, 5]"
"CSc1ccc(C(=O)/C=C/c2cc(C)c(OC(C)(C)C(=O)O)c(C)c2)cc1 [GFT505, elafibranor, reference compound]",significantly reduced,completely abolished,alleviated,,,,,,,,,,
"Flu-BID: Fluorescein labeled BID (79-99) peptide, fluorescent probe in FP assay for Mcl-1",,,,6.9 ± 0.9,,,,,,,,,
"O=C(NS(=O)(=O)c1ccc(NC[C@H]2COCCO2)c([N+](=O)[O-])c1)c1ccc(N2CCN(CC3=C(c4ccc(Cl)cc4)CC4(CCC4)CC3)CC2)cc1Oc1cnc2[nH]ccc2c1 [Compound 1, (S)-N-((4-(((1,4-dioxan-2-yl)methyl)amino)-3-nitrophenyl)sulfonyl)-2-((1H-pyrrolo[2,3-b]pyridin-5-yl)oxy)-4-(4-((6-(4-chlorophenyl)spiro[3.5]non-6-en-7-yl)methyl)piperazin-1-yl)benzamide]",significantly reduced,completely abolished,alleviated,,modest effect,modest effects,reduced,alleviated,better anti-inflammation effect than OCA alone,reduced,modest alleviation,improved anti-inflammation effects,more modest effects
